Reference: patent US8293781B2, “Indole derivatives having cPLA2 inhibiting activity and applications and production methods of the same” (Daiichi Sankyo Company, Limited, priority 2007, dated 2012)
Where a name gives a salt, the structure may show the parent alone.

Assays:
[1] = tested on: guinea pig antigen induced bronchial asthma model; assay: Guinea pig antigen induced bronchial asthma model: airway resistance (IAR, LAR); format: in vivo; settings: for IAR suppression rate (airway resistance): immediate asthmatic response, 1 minute after challenge; for LAR suppression rate (airway resistance): late asthmatic response, AUC 4 to 8 hours
Protocol: (§1) Hartley male guinea pigs (Kyudo Co., Ltd.) were sensitized by inhaling the aerosolized 1% OVA-containing physiological saline solution for consecutive 8 days. One week after the final sensitization, antigen antibody reaction was elicited by inhaling the aerosolized 2% OVA-containing physiological saline solution. 24 hours and 1 hour before antigen challenge, metyrapone (10 mg/kg, 1.0 ml/kg) was injected to the hind limb peripheral vein. 30 minutes before antigen challenge, pyrilamine maleate (10 mg/kg, 1.0 ml/kg) was administered intraperitoneally. The test compound (5 mg/kg and 20 mg/kg, 5.0 ml/kg) was administered once a day from the day after the final sensitization to the day before challenge. On the day of challenge, it was administered orally 1 hour before challenge and 8 hours after challenge. Note that the number of mice used in the test was made eight per group.
The airway resistance (sRaw) was measured using a total respiratory function analysis system (Pulmos-I, made by M.I.P.S.) before antigen challenge, 1 minute after finishing the antigen challenge, and 2, 4, 5, 6, 7, 8, and 22 to 24 hours after antigen challenge. […] The late asthmatic response (LAR) was evaluated by calculating the AUC from the rate of change 4 to 8 hours after inducement based on the measurement values and finding the value obtained by subtratcting the AUC of each compound administered group from the AUC of the vehicle administered group with the control inhibition rate as a percent (%) with respect to the value of the vehicle administered group. The rates of suppression of typical compounds with respect to the increases in airway resistances in immediate asthmatic response (IAR) and late asthmatic response (LAR) are shown in Table 8.

[2] = tested on: guinea pig antigen induced bronchial asthma model; assay: Guinea pig antigen induced bronchial asthma model: airway hyperreactivity to acetyl choline; format: in vivo; settings: 22 to 24 hours after inducement
Protocol: as §1
The airway hyperreactivity was measured 22 to 24 hours after inducement. Physiological saline solution and acetyl choline in 0.0625, 0.125, 0.25, 0.5, 1, and 2 mg/ml amounts in physiological saline solutions were successively nebulized and made to be inhaled by guinea pigs 1 minute at a time each, then the sRaw was measured by a total respiratory function analysis system (Pulmos-I, made by M.I.P.S.) The results of evaluation of typical compounds are shown in Table 9 for different acetyl choline concentrations (PC100Ach, mg/ml) inducing 100% airway resistance.

[3] = tested on: guinea pig antigen induced bronchial asthma model; assay: Guinea pig antigen induced bronchial asthma model: infiltrating cells in BALF; format: in vivo
Protocol: as §1
The number of cells in a bronchial alveolar lavage fluid was counted after measurement of the airway hyperreactivity. Each guinea pig was exsanguinated under anesthesia, its chest was opened, a cannular was inserted into the trachea, then physiological saline was injected into and sucked out from the lungs to recover the bronchial alveolar lavage fluid (BALF). The BALF was centrifugally separated, the obtained precipitate (pellets) was suspended in physiological saline and the total number of cells per 1 μl was calculated by an automatic blood cell counting system (Sysmex F-820). The total number of cells was calculated, then the sample was again centrifugally separated and the obtained pellets were hemolyzed, diluted, centrifuged, and dried, then stained by May-Greenwald's-Giemsa dye. Using a microscope, the ratios of the macrophages, eosinophil granulocytes, neutrophils, and lymphocytes to the total blood cell count (total number of cells) were found and the ratios used to calculate the numbers of cells per μl. The inhibiting rate was found as a percent (%) of the value of the number of cells of the control vehicle administered group minus the number of cells of each compound administered group with respect to the value of the number of cells of the vehicle administered group minus the number of cells of the negative control saline inhalation group.

[4] = tested on: rats; assay: Repeated oral administration to rats once a day over two weeks (toxicity); format: in vivo, rat; settings: once a day over two weeks repeatedly orally
Protocol: Further, the present invention compound (I) or its salts or their solvates have low toxicity. In experiments administering the compound of Example 231 of the present invention to rats once a day over two weeks repeatedly orally, the nontoxic amount was 180 mg/kg/day.

O=C(O)CCc1ccc2c(c1)c(CCc1ccccc1)cn2-c1ccc(OC(F)F)cc1 [Example 190, 3-{1-[4-(difluoromethoxy)phenyl]-3-(2-phenylethyl)-1H-indol-5-yl}propanoic acid 2-amino-2-(hydroxymethyl)propane-1,3-diol salt (1:1)]
IAR suppression rate (airway resistance) ([1]; 5 mg/kg oral): 2%
LAR suppression rate (airway resistance) ([1]; 5 mg/kg oral): 46%
IAR suppression rate (airway resistance) ([1]; 20 mg/kg oral): 2%
LAR suppression rate (airway resistance) ([1]; 20 mg/kg oral): 42%
PC100ACh (acetyl choline concentration inducing 100% airway resistance) ([2]; 5 mg/kg oral): 0.57 mg/mL
PC100ACh (acetyl choline concentration inducing 100% airway resistance) ([2]; 20 mg/kg oral): 0.50 mg/mL
Inhibitory rate of infiltrating cells in BALF: Eosinophils ([3]; 5 mg/kg oral): 41%
Inhibitory rate of infiltrating cells in BALF: Lymphocytes ([3]; 5 mg/kg oral): 30%
Inhibitory rate of infiltrating cells in BALF: Macrophages ([3]; 5 mg/kg oral): 66%
Inhibitory rate of infiltrating cells in BALF: Neutrophils ([3]; 5 mg/kg oral): 0%
Inhibitory rate of infiltrating cells in BALF: Total number of cells ([3]; 5 mg/kg oral): 33%
Inhibitory rate of infiltrating cells in BALF: Eosinophils ([3]; 20 mg/kg oral): 76%
Inhibitory rate of infiltrating cells in BALF: Lymphocytes ([3]; 20 mg/kg oral): 42%
Inhibitory rate of infiltrating cells in BALF: Macrophages ([3]; 20 mg/kg oral): 76%
Inhibitory rate of infiltrating cells in BALF: Neutrophils ([3]; 20 mg/kg oral): 37%
Inhibitory rate of infiltrating cells in BALF: Total number of cells ([3]; 20 mg/kg oral): 62%

O=C(O)CCc1ccc2c(c1)c(CCc1ccccc1)cn2-c1ccc(OCCO)cc1 [Example 229, 3-{1-[4-(2-hydroxyethoxy)phenyl]-3-(2-phenylethyl)-1H-indol-5-yl}propanoic acid 2-amino-2-(hydroxymethyl)propane-1,3-diol salt (1:1)]
IAR suppression rate (airway resistance) ([1]; 5 mg/kg oral): 15%
LAR suppression rate (airway resistance) ([1]; 5 mg/kg oral): 22%
IAR suppression rate (airway resistance) ([1]; 20 mg/kg oral): 33%
LAR suppression rate (airway resistance) ([1]; 20 mg/kg oral): 37%
PC100ACh (acetyl choline concentration inducing 100% airway resistance) ([2]; 5 mg/kg oral): 0.47 mg/mL
PC100ACh (acetyl choline concentration inducing 100% airway resistance) ([2]; 20 mg/kg oral): 0.74 mg/mL
Inhibitory rate of infiltrating cells in BALF: Eosinophils ([3]; 5 mg/kg oral): 51%
Inhibitory rate of infiltrating cells in BALF: Lymphocytes ([3]; 5 mg/kg oral): 11%
Inhibitory rate of infiltrating cells in BALF: Macrophages ([3]; 5 mg/kg oral): 58%
Inhibitory rate of infiltrating cells in BALF: Neutrophils ([3]; 5 mg/kg oral): 0%
Inhibitory rate of infiltrating cells in BALF: Total number of cells ([3]; 5 mg/kg oral): 30%
Inhibitory rate of infiltrating cells in BALF: Eosinophils ([3]; 20 mg/kg oral): 46%
Inhibitory rate of infiltrating cells in BALF: Lymphocytes ([3]; 20 mg/kg oral): 12%
Inhibitory rate of infiltrating cells in BALF: Macrophages ([3]; 20 mg/kg oral): 46%
Inhibitory rate of infiltrating cells in BALF: Neutrophils ([3]; 20 mg/kg oral): 16%
Inhibitory rate of infiltrating cells in BALF: Total number of cells ([3]; 20 mg/kg oral): 35%

O=C(O)CCc1ccc2c(c1)c(CCc1ccccc1)cn2-c1ccc(Oc2ccccc2)cc1 [Example 231, 3-[1-(4-phenoxyphenyl)-3-(2-phenylethyl)-1H-indol-5-yl]propanoic acid 2-amino-2-(hydroxymethyl)propane-1,3-diol salt (1:1)]
IAR suppression rate (airway resistance) ([1]; 5 mg/kg oral): 21%
LAR suppression rate (airway resistance) ([1]; 5 mg/kg oral): 45%
IAR suppression rate (airway resistance) ([1]; 20 mg/kg oral): 59%
LAR suppression rate (airway resistance) ([1]; 20 mg/kg oral): 78%
PC100ACh (acetyl choline concentration inducing 100% airway resistance) ([2]; 5 mg/kg oral): 1.02 mg/mL
PC100ACh (acetyl choline concentration inducing 100% airway resistance) ([2]; 20 mg/kg oral): 1.09 mg/mL
Inhibitory rate of infiltrating cells in BALF: Eosinophils ([3]; 5 mg/kg oral): 58%
Inhibitory rate of infiltrating cells in BALF: Lymphocytes ([3]; 5 mg/kg oral): 45%
Inhibitory rate of infiltrating cells in BALF: Macrophages ([3]; 5 mg/kg oral): 80%
Inhibitory rate of infiltrating cells in BALF: Neutrophils ([3]; 5 mg/kg oral): 38%
Inhibitory rate of infiltrating cells in BALF: Total number of cells ([3]; 5 mg/kg oral): 58%
Inhibitory rate of infiltrating cells in BALF: Eosinophils ([3]; 20 mg/kg oral): 69%
Inhibitory rate of infiltrating cells in BALF: Lymphocytes ([3]; 20 mg/kg oral): 55%
Inhibitory rate of infiltrating cells in BALF: Macrophages ([3]; 20 mg/kg oral): 85%
Inhibitory rate of infiltrating cells in BALF: Neutrophils ([3]; 20 mg/kg oral): 64%
Inhibitory rate of infiltrating cells in BALF: Total number of cells ([3]; 20 mg/kg oral): 72%
nontoxic amount [4]: 180 mg/kg/day
